The values below come from patent US11596620B2, “Formulations with reduced oxidation” (Genentech, Inc., priority 2013, dated 2023).

Series [1] has as its system mAb1. The series can be described thus: Ambient light exposure of 50 mg/mL mAb1 formulations containing L-Trp (Amplex assay, RP-HPLC). Type of series: physicochemical, human. The text has this: While confirming the photosensitivity of free L-Trp under ICH light conditions, the effect of ambient light that was typically seen in laboratories was studied. Measurements using a DLM1 digital light meter in various labs indicated an average of 300 lux on a lab benchtop (with white fluorescent lighting), an average of 3000 lux in a laminar flow hood (with white fluorescent lighting) and about 10000 lux for a windowsill exposed to southeast sunlight. […] Peroxide production increased with both luminosity (300, 3000, and 10000 lux) and time (1, 3, and 7 days). […] These levels of light exposure and time were determined to be pharmaceutically relevant for drug substance handling under ambient light and temperature before fill/finish operations and potentially while inspecting drug product vials.

Series [2] concerns mAb1. Kind of series: mAb1 Fenton stress study (H2O2 + Fe), RP-HPLC. Format: physicochemical, human. The following applies: 10 ppm H2O2 and 0.2 mM Fe(III), 40° C. for 3 hours; antioxidant 1 mM. How it is done: Antioxidants were added at a final concentration of 1 mM. […] After incubation, each reaction was quenched by addition of 100 mM L-Met and then prepared for analysis by reverse-phase HPLC as described above.
The Fenton reaction, using a mixture of H2O2 and Fe ions, generates oxidation through a metal catalyzed, hydroxyl radical reaction (Prousek et al., Pure and Applied Chemistry 79(12):2325-2338 (2007)). This reaction generated Fab, i.e. tryptophan, oxidation in mAb1. The reaction was also carried out in the presence of select antioxidants that were useful against both AAPH and light induced oxidation as reported above. Data related to the antioxidant properties against Fenton mediated reaction were analyzed using the RP-HPLC assay as described above. The Fenton reaction used 10 ppm of H2O2 and 0.2 mM of Fe(III). The reaction was incubated at 40° C. for 3 hours, quenched with 100 mM L-Met and analyzed using RP-HPLC after papain digest. All samples were the average of three separate vials, and mAb1 control (Ref Mat) was one vial with five independent injections on the HPLC. […] In regards to protection against Fc oxidation, the tested excipients (other than salicylic acid) performed slightly better than L-Trp.

Series [3] in a line: Photosensitivity screening assay (H2O2 by Amplex Ultra Red after light exposure). Type of series: physicochemical. The following applies: 1 mM in 20 mM histidine acetate pH 5.5, four hours of light at 250 W/m^2. Here is the method:
As a screening tool, antioxidant candidates were exposed to light for four hours at 250 W/m^2 and the resulting H2O2 formation was quantified by the Amplexassay. Specifically, antioxidants were prepared to 1 mM in 20 mM histidine acetate buffer at pH 5.5. The 1 mM antioxidant solutions were aliquoted into glass vials (2 mL/glass vial) and exposed to four hours of light at 250 W/m^2 in an Atlas SunTest CPS+ Xenon Test Instrument (Chicago, Ill.). Total UV dose was 90 watt-hours/square meter and total visible dose was 0.22 million lux hours over the 4-hour period. Control vials were wrapped in aluminum foil and treated similarly. The amount of hydrogen peroxide generated after exposure to light was measured using the Amplex® Ultra Red Assay (Invitrogen, Carlsbad, Calif.) following the manufacturer's recommended procedure. On addition of horseradish peroxidase (HRP), the dye reacted 1:1 stoichiometrically with H2O2, resulting in the production of fluorescent oxidation product resorufin. In this study, fluorescence readings were obtained using a Spectra Max M2 Micro-plate Reader (Molecular Devices, Sunnyvale, Calif.) with excitation and emission set at 560 nm and 590 nm, respectively. Final H2O2 concentrations were determined using a standard curve ranging from 0 μm to 20 μm.

For series [4], the system named is mAb1. The series can be described thus: mAb1 light stress study (16 hours at 250 W/m^2), RP-HPLC. Type of series: physicochemical, human. The following applies: 16 hours of light at 250 W/m^2. Here is the method: The fragments were reduced with DTT, and then separated and identified via Liquid Chromatography-Mass Spectrometry (LC-MS). […] Comparison of area integrated under the oxidized and native peaks was used to quantify HC Fab and Fc oxidation. […] By using the papain digest RP-HPLC method in the present study it was possible to investigate Trp residue oxidation by quantifying HC Fab oxidation, and Met residue oxidation by quantifying HC Fc oxidation.
Antioxidants were added at 1 mM. Glass vials containing these formulations were exposed to 250 W/m^2 light in an Atlas SunTest CPS+ Xenon Test Instrument (Chicago, Ill.). Control vials were wrapped in aluminum foil and treated similarly. After light exposure, solutions were prepared for analysis by reverse-phase HPLC as described above.

The test system of series [5] is mAb1. Kind of series: Light stress of mAb1 formulation (eight hours at 250 W/m^2), papain digest RP-HPLC. Type of series: physicochemical, human. The following applies: mAb1 5 mg/mL, eight hours of light at 250 W/m^2. Here is the method:
L-tryptophan (L-Trp), an antioxidant used in protein formulations, has been recently shown to be photosensitive (Igarashi et al., Anal Sci 23(8):943-8 (2007)) and to have the ability to produce H2O2 upon light exposure. […] Control vials were wrapped in aluminum foil and treated similarly. After light exposure, solutions were prepared for analysis by reverse-phase HPLC. […] Following incubation, 900 μL of the solution was combined with 100 μL of 1 M dithiothreitol (DTT) and incubated for another thirty minutes at 37° C. Samples were then run on an Agilent, Inc. 1100/1200 HPLC system (Santa Clara, Calif.) equipped with UV detection at 280 nm in conjunction with a Varian, Inc. Pursuit 3 μm, 2 mm ID×250 mm diphenyl column (Palo Alto, Calif.). Mobile Phase A was 0.1% TFA in water. Mobile Phase B was 0.1% TFA in acetonitrile. The mobile phase gradient increased linearly from 34% B at 0 minutes to 43% B at 50.0 minutes, then to 95% B at 50.1 minutes. The gradient remained at 95% B until 60.1 minutes, and then decreased linearly from 95% B to 34% B between 60.1 and 60.2 minutes. The gradient remained at 34% B until the end of the cycle at 80.2 minutes. The column temperature was 65° C., total flow rate was 0.2 mL/min, and injection volume of each sample was 6 μL. Chromatograms were then integrated for quantification of oxidation.

As for `N[C@@H](Cc1c[nH]c2ccccc12)C(=O)O` [L-Trp, L-tryptophan], the “Heavy chain Fab oxidation (W53) under ambient light, in words” value with mAb1 [1] (50 mg/mL mAb1 with L-Trp, increasing luminosity) was “increased heavy chain Fab oxidation”. Also, the “% Fc oxidation in mAb1” value stood at 5% with mAb1 [1] (300 lux, 50 mg/mL mAb1 with L-Trp) and 40% in the series with mAb1 [1] (10000 lux, 50 mg/mL mAb1 with L-Trp). The “Hydrogen peroxide production under ambient light” value in the series with mAb1 [1] (L-Trp in formulation buffers containing 50 mg/mL mAb1, 300, 3000, 10000 lux, 1, 3, 7 days) is given as “micromolar range”. In the series on mAb1 [2], the “Protection of Fab oxidation with respect to the no excipient case” value is recorded as “about 25%”. In series [3], the “(H2O2 produced by Compound)/(H2O2 produced by L-Trp)” value worked out at 1. For the same compound, the “Fc oxidation as multiple of the control level” value with mAb1 [4] (1 mM L-Trp) worked out at 7 times. In addition, the “Fab oxidation increase over the control level (mAb1 Ref Mat)” value with mAb1 [4] (excipient 1 mM or none) is “over 11 fold”. For the same compound, in the series with mAb1 [5] (1 mM L-Trp, reference material and foil control about 8%), the Fc oxidation entry was “over 20%”. The same compound gave a Fab oxidation with mAb1 [5] (no excipient or 1 mM L-Trp, reference material and foil control about 2%) of about 9%.
